System: 636577-100-R-J1-PDC complex spheroid viability
Assay: Anticancer human tumor 636577-100-R-J1-PDC patient-derived endometrial adenocarcinoma cell line growth inhibition [GQUAD]
Conditions: for IC50: curve of first compound; for viability, T/C: stronger effect = lower value
Excerpt: DNA G-quadruplex Stabilizer Agents in Combinations in Complex Spheroids
A high-throughput screen of multi-cell type tumor spheroids was designed to identify active combinations of DNA G-quadruplex stabilizer agents and targeted small molecules. Complex spheroids include a stromal component modeled by human endothelial cells (HUVEC) and fibroblasts modeled by human mesenchymal stem cells (MSCs). The concentration ranges selected for each drug and investigational agent were based upon clinically achievable concentrations if the clinical Cmax of the agent was known.
Compounds. The drugs and investigational agents: pidnarulex (CX-5461; NSC782164), APTO-253 (NSC789042), BRACO-19 (NSC847499), peposertib (NSC802822), ceralasertib (NSC780249), elimusertib (NSC800525), camonsertib (NSC841442), AZD-1390 (NSC803789), olaparib (NSC753686), talazoparib (NSC767125), ART-558 (NSC835418), sotorasib (NSC818433), MRTX-1133 (NSC836407), SN-38 (NSC673596), topotecan (NSC609699), etoposide (NSC141540), doxorubicin (NSC123127), gemcitabine (NSC613327), 5-fluorouracil (NSC19893), paclitaxel (NSC125973), vemurafenib (NSC761431), panobinostat (NSC761190), R-306465 (JNJ-16241199; NSC773264), adavosertib (NSC754352), TP-3654 (NSC805149), carboplatin (NSC241240), KSQ-4279 (NSC840948), and staurosporine (NSC755774) were obtained from the National Cancer Institute (NCI) Developmental Therapeutics Program Chemical Repository (34). The FDA-approved anticancer drug set is available from the NCI Developmental Therapeutics Program. […] The stock solutions were prepared in dimethyl sulfoxide (DMSO, Sigma-Aldrich, St. Louis, MO, cat. D2650) at 800-fold the tested concentration and stored at -70 degrees C prior to their use. All drugs and investigational agents were tested over a range starting from a high concentration at or near the clinical Cmax and decreasing in half-log increments. If the clinical Cmax for an agent had not been determined, the highest concentration tested was 10 microM.
2.3 Cell Culture. All cells were maintained in an incubator at 37 degrees C and 5% CO2 with 95% humidity. The PDC lines were cultured according to standard operating procedures established by the NCI PDMR. All PDCs were thawed and cultured in Matrigel-coated flasks prepared with a working solution of 1X Ham's F-12 nutrient mix, without supplementation (Invitrogen, cat. 11765054), 100 U/mL penicillin-streptomycin (Invitrogen, cat. 15140122), and 2.5% Matrigel (Corning Inc., cat. 354248) for the first three passages. The 857933-349-R-J2-PDC line was cultured in 6C/Colon 1B media, which includes advanced DMEM/F-12 (Thermo Fisher Scientific, cat. 12634028), 10 mM HEPES (Thermo Fisher Scientific, cat. 15630080), 1X GlutaMAX supplement (Thermo Fisher Scientific, cat. 35050061), 0.1 mg/mL primocin (InvivoGen, cat. ant-pm-2), 10% defined fetal bovine serum, heat inactivated (HyClone Laboratories Inc., cat. SH30070.03HI), 50% L-WRN conditioned media (ATCC, cat. CRL-3276), 1.25 mM N-Acetyl-L-cysteine (Sigma-Aldrich, cat. A9165), 10 mM nicotinamide (Sigma-Aldrich, cat. N0636), 1X B-27 supplement (Thermo Fisher Scientific, cat. 17504044), 1X N-2 supplement (Thermo Fisher Scientific, cat. 17502048), 10 microM Y-27632 dihydrochloride (Tocris Bioscience, cat. 1254), and 50 ng/mL human EGF recombinant protein (Thermo Fisher Scientific, cat. PHG0311). The 485176-168-R4-J1-PDC line was cultured in Panc media, which includes all 6C/Colon 1B media components plus 100 ng/mL human FGF-10 (Thermo Fisher Scientific, cat. 100-26), 500 nM SB-431542 (Selleckchem, cat. S1067), and gastrin (Tocris, cat. 3006).
[…]

[1] = second compound 0.0316 µM, first compound 0.0316 µM
[2] = second compound 0.0316 µM, first compound 0.1 µM
[3] = second compound 0.0316 µM, first compound 0.316 µM
[4] = second compound 0.0316 µM, first compound 1 µM
[5] = second compound 0.0316 µM, first compound 3.16 µM
[6] = second compound 0.0316 µM, first compound 10 µM
[7] = second compound 0.1 µM, first compound 0.0316 µM
[8] = second compound 0.1 µM, first compound 0.1 µM
[9] = second compound 0.1 µM, first compound 0.316 µM
[10] = second compound 0.1 µM, first compound 1 µM
[11] = second compound 0.1 µM, first compound 3.16 µM
[12] = second compound 0.1 µM, first compound 10 µM
[13] = second compound 0.316 µM, first compound 0.0316 µM
[14] = second compound 0.316 µM, first compound 0.1 µM
[15] = second compound 0.316 µM, first compound 0.316 µM
[16] = second compound 0.316 µM, first compound 1 µM
[17] = second compound 0.316 µM, first compound 3.16 µM
[18] = second compound 0.316 µM, first compound 10 µM
[19] = second compound 1 µM, first compound 0.0316 µM
[20] = second compound 1 µM, first compound 0.1 µM
[21] = second compound 1 µM, first compound 0.316 µM
[22] = second compound 1 µM, first compound 1 µM
[23] = second compound 1 µM, first compound 3.16 µM
[24] = second compound 1 µM, first compound 10 µM
[25] = second compound 3.16 µM, first compound 0.0316 µM
[26] = second compound 3.16 µM, first compound 0.1 µM
[27] = second compound 3.16 µM, first compound 0.316 µM
[28] = second compound 3.16 µM, first compound 1 µM
[29] = second compound 3.16 µM, first compound 3.16 µM
[30] = second compound 3.16 µM, first compound 10 µM
[31] = second compound 10 µM, first compound 0.0316 µM
[32] = second compound 10 µM, first compound 0.1 µM
[33] = second compound 10 µM, first compound 0.316 µM
[34] = second compound 10 µM, first compound 1 µM
[35] = second compound 10 µM, first compound 3.16 µM
[36] = second compound 10 µM, first compound 10 µM
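Also: viability read after seven days of drug exposure.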
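For viability, T/C in this document: luminescence signal used as a proxy for viable cells; 100% = DMSO vehicle control wells.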

With `CC(=O)O[C@H]1C(=O)[C@@]2(C)[C@H]([C@H](OC(=O)c3ccccc3)[C@]3(O)C[C@H](OC(=O)[C@H](O)[C@@H](NC(=O)c4ccccc4)c4ccccc4)C(C)=C1C3(C)C)[C@]1(OC(C)=O)CO[C@@H]1C[C@@H]2O` + Cc1cnc(CNC(=O)c2c(=O)c3ccc(N4CCCN(C)CC4)nc3n3c2sc2ccccc23)cn1 the IC50 (second compound 0.0316 µM) was less than 31.6 nM, the IC50 (second compound 0.1 µM) was less than 31.6 nM and the IC50 (second compound 0.316 µM) was less than 31.6 nM. The IC50 (second compound 1 µM) was less than 31.6 nM, the IC50 (second compound 3.16 µM) was less than 31.6 nM and the IC50 (second compound 10 µM) was less than 31.6 nM. For the same compound, the viability, T/C [1] was 22.4%, the viability, T/C [2] was 13.4% and the viability, T/C [3] was 13%. The viability, T/C [4] was 10.6%, the viability, T/C [5] was 9.54% and the viability, T/C [6] was 9.18%. It also gave a viability, T/C [7] of 23.1%, a viability, T/C [8] of 16.2% and a viability, T/C [9] of 14.3%. It also gave a viability, T/C [10] of 10.2%, a viability, T/C [11] of 12.1% and a viability, T/C [12] of 10.1%. It also gave a viability, T/C [13] of 23.6%, a viability, T/C [14] of 18% and a viability, T/C [15] of 13.9%. For the same compound, the viability, T/C [16] was 12.5%, the viability, T/C [17] was 11.2% and the viability, T/C [18] was 10.7%. It also gave a viability, T/C [19] of 21.2%, a viability, T/C [20] of 16.5% and a viability, T/C [21] of 15%. For the same compound, the viability, T/C [22] was 14.2%, the viability, T/C [23] was 13.2% and the viability, T/C [24] was 10.7%. For the same compound, the viability, T/C [25] was 19.6%, the viability, T/C [26] was 18.2% and the viability, T/C [27] was 17.2%. For the same compound, the viability, T/C [28] was 14.3%, the viability, T/C [29] was 15.7% and the viability, T/C [30] was 14.3%. It also gave a viability, T/C [31] of 18.1%, a viability, T/C [32] of 18.5% and a viability, T/C [33] of 17.8%. For the same compound, the viability, T/C [34] was 15.3%, the viability, T/C [35] was 15.2% and the viability, T/C [36] was 15.3%.

Compound `CC1COCCN1c1cc(-c2ccnn2C)c2ccnc(-c3ccn[nH]3)c2n1` (stereo unspecified) + Cc1cnc(CNC(=O)c2c(=O)c3ccc(N4CCCN(C)CC4)nc3n3c2sc2ccccc23)cn1 has an IC50 (second compound 0.0316 µM) of less than 31.6 nM, an IC50 (second compound 0.1 µM) of less than 31.6 nM and an IC50 (second compound 0.316 µM) of less than 31.6 nM. For the same compound, the IC50 (second compound 1 µM) was less than 31.6 nM, the IC50 (second compound 3.16 µM) was less than 31.6 nM and the IC50 (second compound 10 µM) was less than 31.6 nM. It also gave a viability, T/C [1] of 31.9%, a viability, T/C [2] of 20.2% and a viability, T/C [3] of 18.4%. The viability, T/C [4] was 9.61%, the viability, T/C [5] was 5.71% and the viability, T/C [6] was 3.77%. The viability, T/C [7] was 22.7%, the viability, T/C [8] was 19.2% and the viability, T/C [9] was 17.2%. For the same compound, the viability, T/C [10] was 11.2%, the viability, T/C [11] was 6.18% and the viability, T/C [12] was 3.47%. For the same compound, the viability, T/C [13] was 15.1%, the viability, T/C [14] was 19.7% and the viability, T/C [15] was 17.7%. For the same compound, the viability, T/C [16] was 12.5%, the viability, T/C [17] was 6.51% and the viability, T/C [18] was 2.82%. The viability, T/C [19] was 17.9%, the viability, T/C [20] was 18.9% and the viability, T/C [21] was 15.6%. For the same compound, the viability, T/C [22] was 14.7%, the viability, T/C [23] was 7.08% and the viability, T/C [24] was 3.42%. It also gave a viability, T/C [25] of 18.9%, a viability, T/C [26] of 17.4% and a viability, T/C [27] of 16.8%. For the same compound, the viability, T/C [28] was 14%, the viability, T/C [29] was 7.38% and the viability, T/C [30] was 3.36%. The viability, T/C [31] was 16.8%, the viability, T/C [32] was 16.6% and the viability, T/C [33] was 17.2%. It also gave a viability, T/C [34] of 10.1%, a viability, T/C [35] of 6.54% and a viability, T/C [36] of 3.1%.

`COc1ccc([C@@H](O)c2cc(-c3ncnc4cc(N5CCOCC5)ccc34)c(F)cc2Cl)nn1` + Cc1cnc(CNC(=O)c2c(=O)c3ccc(N4CCCN(C)CC4)nc3n3c2sc2ccccc23)cn1 showed an IC50 (second compound 0.0316 µM) of less than 31.6 nM, an IC50 (second compound 0.1 µM) of less than 31.6 nM and an IC50 (second compound 0.316 µM) of less than 31.6 nM. For the same compound, the IC50 (second compound 1 µM) was less than 31.6 nM, the IC50 (second compound 3.16 µM) was less than 31.6 nM and the IC50 (second compound 10 µM) was less than 31.6 nM. It also gave a viability, T/C [1] of 47.1%, a viability, T/C [2] of 42.8% and a viability, T/C [3] of 20%. The viability, T/C [4] was 10.8%, the viability, T/C [5] was 9.47% and the viability, T/C [6] was 9.92%. It also gave a viability, T/C [7] of 30.6%, a viability, T/C [8] of 22% and a viability, T/C [9] of 15.2%. The viability, T/C [10] was 12.2%, the viability, T/C [11] was 13.5% and the viability, T/C [12] was 11.6%. The viability, T/C [13] was 22.8%, the viability, T/C [14] was 21.2% and the viability, T/C [15] was 13%. It also gave a viability, T/C [16] of 13.2%, a viability, T/C [17] of 13.6% and a viability, T/C [18] of 12.8%. It also gave a viability, T/C [19] of 18.2%, a viability, T/C [20] of 18.3% and a viability, T/C [21] of 13.8%. For the same compound, the viability, T/C [22] was 15.4%, the viability, T/C [23] was 14.1% and the viability, T/C [24] was 10.8%. It also gave a viability, T/C [25] of 20.3%, a viability, T/C [26] of 17.9% and a viability, T/C [27] of 18%. The viability, T/C [28] was 16.1%, the viability, T/C [29] was 16.6% and the viability, T/C [30] was 13.6%. The viability, T/C [31] was 19.5%, the viability, T/C [32] was 21.2% and the viability, T/C [33] was 19.6%. It also gave a viability, T/C [34] of 18.5%, a viability, T/C [35] of 16.5% and a viability, T/C [36] of 14.5%.
